The nature of this series: Kinematic viscosity of non-volatile hydrocarbon oil. It counts as physicochemical. As to conditions: viscosity measuring temperature 40 ° C. From the text: The “kinematic viscosity” is a value obtained by converting a viscosity (mPa·s) measured according to “Method II Viscosity measurement by rotational viscometer (2.12 Single cylinder-type rotational viscometer (Brookfield type viscometer)” in “2.53 Viscosity Determination” of General Tests in “Japanese Pharmacopoeia 17th Edition” into a kinematic viscosity.

Consider one compound from patent US20240366523A1, “PATCH AND PRODUCTION METHOD THEREOF” (KANEKA CORPORATION, priority 2021, published 2024).

In turn, `CC(C)CCCC(C)CCCC(C)CCCCC(C)CCCC(C)CCCC(C)C` (stereo not shown) [SQUALANE] had a Kinematic viscosity of 20.5 mm^2/s.
